How the values were obtained:
[1] = target: Epidermal growth factor receptor [L858R] (Homo sapiens, UniProt P00533, L858R); assay: HTRF-Based EGFR Biochemical Assays
Experimental: (§1) EGFR biochemical activity measurements were carried out using the homogeneous time-resolved fluorescence (HTRF) assay (Cisbio). Inhibitors and DMSO normalizations were first dispensed to empty black low-volume 384-well plates (Corning) with D300 digital liquid dispenser (HP). All reactions were carried out at room temperature and solutions were added to plates with a Multidrop Combi Reagent Dispenser (ThermoFisher). The reaction mixture (10 μL final volume) contained 1 μM tyrosine kinase peptide-biotin substrate and mutant EGFR in a reaction buffer (50 mM HEPES pH 7,0, 5 mM MgCl2,1 mM MnCl2, 0.01% BSA, 2 mM TCEP, 0.1 mM NaVO4). Enzyme concentrations were adjusted to accommodate varying kinase activities (L858R 0.1 nM, L858R!T790M 0,02 nM). Enzyme reaction solution (2× concentrations, 5 μL) was added to 384-well plates containing compounds and incubated for 30 mins. Enzyme reactions were initiated with the addition of […] of ATP to a final concentration of 100 μM and reacted for 20 mins. Reactions were quenched with the addition of 10 μL of phospho-tyrosine antibody-Europium(III) cryptate (1-to-180 volume ratio) and Streptavidin-XL665 (46.7 nM) in EDTA-containing detection buffer, then incubated at room temperature for 1 hour, and read with a PHERAstar plate reader (excitation =337 nm, emission =620 nm and 665 nm).

[2] = target: Epidermal growth factor receptor [T790M,L858R] (Homo sapiens, UniProt P00533, L858R/T790M); assay: HTRF-Based EGFR Biochemical Assays
Experimental: as §1

Epidermal growth factor receptor [T790M,L858R], sequence (P00533 25-1210 T790M/L858R limits assumed): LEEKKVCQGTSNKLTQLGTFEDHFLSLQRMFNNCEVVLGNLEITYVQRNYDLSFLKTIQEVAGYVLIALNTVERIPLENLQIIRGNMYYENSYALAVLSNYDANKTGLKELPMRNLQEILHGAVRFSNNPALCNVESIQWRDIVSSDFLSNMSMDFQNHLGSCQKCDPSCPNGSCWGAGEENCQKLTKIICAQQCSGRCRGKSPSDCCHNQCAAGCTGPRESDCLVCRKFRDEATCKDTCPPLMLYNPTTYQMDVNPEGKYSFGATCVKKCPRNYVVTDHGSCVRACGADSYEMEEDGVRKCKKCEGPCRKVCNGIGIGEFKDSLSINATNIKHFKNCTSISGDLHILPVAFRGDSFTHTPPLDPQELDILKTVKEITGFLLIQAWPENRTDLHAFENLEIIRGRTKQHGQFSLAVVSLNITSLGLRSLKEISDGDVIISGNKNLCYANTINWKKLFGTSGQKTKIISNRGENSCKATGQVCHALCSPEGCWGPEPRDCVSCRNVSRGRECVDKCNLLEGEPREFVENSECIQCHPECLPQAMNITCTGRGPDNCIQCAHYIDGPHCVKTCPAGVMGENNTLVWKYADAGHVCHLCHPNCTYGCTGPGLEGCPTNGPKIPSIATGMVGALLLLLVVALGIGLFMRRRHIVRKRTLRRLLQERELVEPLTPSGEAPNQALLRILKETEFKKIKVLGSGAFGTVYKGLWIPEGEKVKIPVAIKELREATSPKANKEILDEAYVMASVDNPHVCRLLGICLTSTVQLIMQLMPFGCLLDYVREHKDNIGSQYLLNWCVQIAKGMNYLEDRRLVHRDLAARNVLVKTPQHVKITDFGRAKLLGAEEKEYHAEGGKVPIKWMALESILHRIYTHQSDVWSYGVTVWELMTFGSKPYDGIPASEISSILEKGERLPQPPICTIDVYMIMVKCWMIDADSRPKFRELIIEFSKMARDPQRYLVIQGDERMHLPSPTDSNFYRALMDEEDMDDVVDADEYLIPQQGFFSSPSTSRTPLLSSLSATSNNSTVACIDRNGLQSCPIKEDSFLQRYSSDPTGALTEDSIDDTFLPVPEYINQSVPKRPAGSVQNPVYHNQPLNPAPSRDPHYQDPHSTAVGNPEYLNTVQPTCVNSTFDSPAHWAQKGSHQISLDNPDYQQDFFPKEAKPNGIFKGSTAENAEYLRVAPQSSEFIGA
Epidermal growth factor receptor [L858R], sequence (P00533 25-1210 L858R limits assumed): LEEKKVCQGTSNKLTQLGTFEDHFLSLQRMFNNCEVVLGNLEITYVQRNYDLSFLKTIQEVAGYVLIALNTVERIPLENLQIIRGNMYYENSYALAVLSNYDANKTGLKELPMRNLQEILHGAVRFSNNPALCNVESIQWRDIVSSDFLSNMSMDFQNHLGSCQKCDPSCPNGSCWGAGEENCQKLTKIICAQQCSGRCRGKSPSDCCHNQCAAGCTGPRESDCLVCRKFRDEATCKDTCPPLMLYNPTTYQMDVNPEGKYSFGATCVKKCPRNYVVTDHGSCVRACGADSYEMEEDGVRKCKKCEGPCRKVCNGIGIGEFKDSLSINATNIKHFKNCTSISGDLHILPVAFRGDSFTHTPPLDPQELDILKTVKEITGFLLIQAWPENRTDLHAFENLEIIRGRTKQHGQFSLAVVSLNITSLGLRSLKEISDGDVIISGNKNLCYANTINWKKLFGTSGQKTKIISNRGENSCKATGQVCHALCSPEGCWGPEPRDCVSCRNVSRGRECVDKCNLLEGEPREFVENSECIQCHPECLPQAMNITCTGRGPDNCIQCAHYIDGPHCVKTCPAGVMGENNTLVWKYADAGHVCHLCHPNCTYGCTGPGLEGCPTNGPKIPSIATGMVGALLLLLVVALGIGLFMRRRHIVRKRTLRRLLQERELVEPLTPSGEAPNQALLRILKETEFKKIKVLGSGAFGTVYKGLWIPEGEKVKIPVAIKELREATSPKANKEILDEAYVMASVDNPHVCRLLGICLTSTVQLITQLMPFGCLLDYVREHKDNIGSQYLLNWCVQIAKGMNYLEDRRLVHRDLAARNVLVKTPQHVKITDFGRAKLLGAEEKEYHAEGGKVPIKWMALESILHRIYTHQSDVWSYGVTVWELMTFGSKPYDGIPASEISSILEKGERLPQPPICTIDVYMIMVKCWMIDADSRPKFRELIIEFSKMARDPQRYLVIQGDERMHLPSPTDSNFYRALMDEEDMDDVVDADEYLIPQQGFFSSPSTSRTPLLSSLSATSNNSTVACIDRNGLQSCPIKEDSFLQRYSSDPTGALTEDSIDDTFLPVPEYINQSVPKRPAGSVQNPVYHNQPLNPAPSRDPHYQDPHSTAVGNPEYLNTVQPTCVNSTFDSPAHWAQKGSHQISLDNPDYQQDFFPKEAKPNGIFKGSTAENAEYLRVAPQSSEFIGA

Structure (SMILES)	IC50 [1] [nM]	IC50 [2] [nM]
O=C(Nc1ccccn1)C(c1cccc(F)c1)N1Cc2ncc(Br)cc2C1=O (stereo not given) [US12377080, Compound 3]	> 1000	40
O=C(Nc1nccs1)C(c1cccc(F)c1)N1Cc2ccc(Br)nc2C1=O (stereo not given) [US12377080, Compound 4]	> 1000	14
O=C(Nc1ccccn1)C(c1cccc(F)c1)N1Cc2ccc(Br)nc2C1=O (stereo not given) [US12377080, Compound 5]	> 1000	114

Next, values leading:

IC50 [1] [nM]	IC50 [2] [nM]	Structure (SMILES)
> 1000	104	O=C(Nc1nccs1)C(c1cccc(F)c1)N1Cc2cnc(Br)cc2C1=O (stereo not given) [US12377080, Compound 1]
318	15	O=C(Nc1nccs1)C(c1cccc(F)c1)N1Cc2ncc(Br)cc2C1=O (stereo not given) [US12377080, Compound 2]

— BindingDB's records for patent US12377080 (Dana-Farber Cancer Institute, 2025)
